Measurements reported in patent US11643439B2, “Multi-target compound with anticoagulation and antiplatelet activity, preparation method therefor, and use thereof” (SHAANXI MICOT TECHNOLOGY LIMITED COMPANY, priority 2015, dated 2023).
Marks after values point to notes of the source that are not given here.

Assays:
[1] = tested on: FeCl3-induced common carotid arterial thrombosis; experiment: FeCl3-induced common carotid arterial thrombosis in rats; format: in vivo, rat
Protocol: 160 Rats were randomly divided into groups, 5 to 10 rats per group.
According to the body weight in kilograms of the rats, the first dose of a drug was dissolved in 2 mL of physiological saline for single bolus injection. The maintaining dose of drug was dissolved in 9 ml of physiological saline, and placed in a double-channel micro-injection pump, which was dripped off within 90 minutes at a dripping speed of 0.1 ml/min. The sham operation group was administered with the same volume of physiological saline.
The rats were fasted with free access to water overnight before the experiment.
After administration at a load dosage maintenance for 30 minutes, a filter paper with a 3 mm diameter and immersed with 35% FeCl3 solution was applied below the common carotid artery, below which a small piece of a plastic film (2.5 cm×2.0 cm) was placed to protect surrounding tissues. The body temperature was detected with a temperature probe in the distal end of the artery, and the time required from the beginning of stimulation to the point when the temperature decreased by 2.5 degrees was examined as the vascular occlusion time.
The time from the point when FeCl3 was placed to the point when the temperature of the artery indicated a decrease of 2.5° C. was the vascular occlusion time, which reflected the state of thrombus formation.

[2] = tested on: FeCl3-induced femoral artery thrombosis; experiment: FeCl3-induced femoral artery thrombosis in rabbits, single intravenous administration; format: in vivo, rabbit
Protocol: (§1) 1. Grouping and administration: 48 Rabbits were randomly divided into 6 groups, 8 rabbits per group. 1) Sham operation group (NS): Intravenous injection of the same volume of physiological saline; 2) positive control bivalirudin group (6 mg/kg); 3) positive control enoxaparin group (200 U/kg); 4) Low dose group of polypeptide 2 (3.0 mg/kg); 5) Medium dose group of polypeptide 2 (6.0 mg/kg); 6) High dose group of polypeptide 2 (12.0 mg/kg). Polypeptide 2 was administered by single intravenous administration. According to the body weight in kilograms of the rabbits, the sample was dissolved in 2 mL of physiological saline for single bolus injection. The sham operation group was administered with the same volume of physiological saline.
2.1 Surgery preparation of rabbits: Rabbit were sent to the laboratory for accommodation for one day, and then screened at first. Blood samples were taken from arteries within ears, which were subjected to blood routine analysis and APTT examinations, and the rabbits with a normal blood hemogram and APTT between 16 and 28 seconds were selected for experiments. The rabbits to be tested were fasted with free access to water in the night before the experiment. The rabbits were anesthetized with intravenous injection of 3% sodium pentobarbital solution at 1 ml/kg, fixed in the supine position, and then, the common carotid artery at one side, external jugular vein, femoral artery at one side, femoral vein, and forelimb vein at one side were isolated. The forelimb vein was subjected to intubation for administration; the left femoral vein was subjected to intubation for blood collection to determine the platelet aggregation rate: the femoral artery was used for the establishment of an arterial thrombosis model; the common carotid artery and external jugular vein were used for the establishment of an arterial and venous bypass thrombosis model.
2.3 Arterial thrombosis (AT) model: A small piece of filter paper (1 cm×1.5 cm) absorbed with 50% FeCl3 solution was applied onto the right femoral artery while administration, below which a small piece of a plastic film (2.5 cm×2.0 cm) was placed to protect surrounding tissues. After 10 minutes, the filter paper was removed, and then, the blood vessels and local tissues were rinsed with warm physiological saline, and the covered blood vessels were cut off. The thrombus which attached to the blood vessel walls was peeled off to be weighed on a tin foil for its wet weight, and then kept overnight at room temperature and weighed for its dry weight.
The femoral arteries in the […] and both sides in the rabbits were isolated and stabilized for 10 min before the administration was started. An AT model was established by covering the femoral artery with 50% FeCl3 filter paper while administration, and the filter paper was removed after covering for 15 minutes. An AVST model was established and it was taken out after […]. Observation was continued for 120 min after administration until the experiment was completed.
3.4 Thrombus weight: After the experiment was completed, the segment of the blood vessels in which there had been thrombus formation was cut off, weighed for the wet weight, and then kept overnight at room temperature and weighed for the dry weight. The thrombosis inhibitory rate was calculated with a calculation equation as follows: […]

[3] = tested on: blood coagulation function; experiment: APTT in rabbits, single intravenous administration; format: in vivo, rabbit
Protocol: as §1
3.2 Determination of blood coagulation function: Blood samples were taken and the blood function (PT, TT, APTT) was determined at 0 min before administration, at points of 5 min and 15 min after administration, using a platelet-aggregation coagulation factor analyzer. Blood samples were centrifuged at 3510 rpm for 8 min to obtain platelet poor plasma (PPP). Reagent reconstruction and preservation were performed according to the operation requirements of the kit. Immediately after each blood sample was placed into a test cup and then added with PT. TT and APTT reagents, the test was started. After the test was completed, results were recorded.

[4] = tested on: thrombin-induced pulmonary embolism; experiment: Thrombin-induced pulmonary embolism in mice; format: in vivo, mouse; details: thrombin 1500 u/kg; for Mortality rate: within 15 min
Protocol: Mice were randomly divided into 7 groups with 10 mice per group, in which group 1 was physiological saline group, group 2 was model control group, group 3 was positive control group of enoxaparin 0.5 mg/kg, group 4 was positive control group of bivalirudin 8 mg/kg, group 5 was low dose group of polypeptide 2 at 2.5 mg/kg, group 6 was medium dose group of polypeptide 2 at 5.0 mg/kg, and group 7 was high dose group of polypeptide 2 at 10.0 mg/kg. Except that physiological saline group and model control group were subjected to tail intravenous injection of 200 μl physiological saline, the other groups were given according to the doses, respectively. After 2 min, the mice in physiological saline group were administered with 100 μl physiological saline through tail intravenous injection and the other groups were each administered with 100 μl thrombin based on 1500 u/kg (80% to 90% of the lethal dose) through tail intravenous injection. The mice were observed after the administration for their death within 15 min.
(1) Recording mortality rate: the death status of mice with acute pulmonary embolism mice within 15 min was recorded and the survival time was recorded, to calculate the mortality rate;
(2) Determining lung coefficient: immediately after death, the bronchial and adipose tissues were dissected away from the lung tissue, and the lung tissue was washed with distilled water, and weighed for the lung weight after soaking up the water on the surface of the lung with a filter paper. The lung was taken out and weighed, to calculate the lung coefficient. Lung coefficient=Lung weight/Body weight×100%;
The lung was immediately dissected and taken out and weighed to determine the lung coefficient.

[5] = iv 0.08 + 0.325 (mg/kg + mg/kg/h)
[6] = iv 0.17 + 0.65 (mg/kg + mg/kg/h)
[7] = iv 0.35 + 1.3 (mg/kg + mg/kg/h)
[8] = single iv 6.0 mg/kg, Administration 5 min
[9] = single iv 6.0 mg/kg, Administration 15 min
[10] = single iv 6.0 mg/kg, Administration for 5 min
[11] = single iv 6.0 mg/kg, Administration for 15 min
[12] = single iv 6.0 mg/kg, Before administration
[13] = iv 0.125 + 0.375 (mg/kg + mg/kg/h)
[14] = iv 0.25 + 0.75 (mg/kg + mg/kg/h)

Bivalirudin: Bivalirudin for Injection, Xi'an Xintong Pharmaceutical Research Co., Ltd.; positive control thrombin inhibitor
Common carotid arterial thrombosis Fold of prolongation [1, 5]: 1.79 ± 0.06
Common carotid arterial thrombosis OT [1, 5]: 44.75 ± 1.53 min
Common carotid arterial thrombosis Fold of prolongation [1, 6]: 2.24 ± 0.24
Common carotid arterial thrombosis OT [1, 6]: 56.00 ± 6.03 min
Common carotid arterial thrombosis Fold of prolongation [1, 7]: 2.23 ± 0.33
Common carotid arterial thrombosis OT [1, 7]: 55.63 ± 8.21 min
Common carotid arterial thrombosis Fold of prolongation ([1]; iv 0.5 + 2 (mg/kg + mg/kg/h)): 2.32 ± 0.23
Common carotid arterial thrombosis OT ([1]; iv 0.5 + 2 (mg/kg + mg/kg/h)): 58.00 ± 5.77 min
Thrombus dry weight ([2]; single iv 6.0 mg/kg): 1.5 ± 0.9 mg
Thrombus inhibitory rate ([2]; single iv 6.0 mg/kg): 48.20%
APTT fold of prolongation [3, 8]: 2.4 ± 0.3
APTT fold of prolongation [3, 9]: 1.4 ± 0.3
APTT [3, 10]: 50.4 ± 3.6 s
APTT [3, 11]: 30.9 ± 2.7 s
APTT [3, 12]: 21.6 ± 1.0 s
Lung coefficient ([4]; tail iv 8.0 mg/kg): 0.99 ± 0.07 g/100 g
Number of platelets ([4]; tail iv 8.0 mg/kg): 411.89 ± 175.52 ×10^9
Mortality rate ([4]; tail iv 8.0 mg/kg, 8 mg/kg): 10**^## %
Mortality rate ([4]; tail iv 8.0 mg/kg, listed as bivalirudin, 8 mg/kg): 10%

D-Phe Pro Arg Pro Gly Gly Gly Gly Asn Gly Asp Phe Glu Glu Ile Pro Glu Glu Tyr Leu Glu Ala Ala Ala Lys Cys Har Gly Asp Trp Pro Cys [Polypeptide 2]
Common carotid arterial thrombosis OT ([1]; iv 0.041 + 0.125 (mg/kg + mg/kg/h)): 20.20 ± 10.00 min
Common carotid arterial thrombosis Fold of prolongation [1, 13]: 27.99
Common carotid arterial thrombosis OT [1, 13]: 16.23 ± 6.76 min
Common carotid arterial thrombosis Fold of prolongation [1, 14]: 36.85
Common carotid arterial thrombosis OT [1, 14]: 14.23 ± 4.82 min
Common carotid arterial thrombosis OT ([1]; iv 0.5 + 1.25 (mg/kg + mg/kg/h)): 9.25 ± 4.86 min
Common carotid arterial thrombosis Fold of prolongation ([1]; iv 1 + 2.5 (mg/kg + mg/kg/h)): 56.03
Common carotid arterial thrombosis OT ([1]; iv 1 + 2.5 (mg/kg + mg/kg/h)): 9.91 ± 6.20 min
Common carotid arterial thrombosis OT ([1]; iv 1.5 + 3.75 (mg/kg + mg/kg/h)): 7.13 ± 3.46 min
Thrombus dry weight ([2]; single iv 3.0 mg/kg): 1.4 ± 0.5 mg
Thrombus inhibitory rate ([2]; single iv 3.0 mg/kg): 52.99%
Thrombus dry weight ([2]; single iv 6.0 mg/kg): 1.2 ± 0.7 mg
Thrombus inhibitory rate ([2]; single iv 6.0 mg/kg): 56.90%
Thrombus dry weight ([2]; single iv 12.0 mg/kg): 1.1 ± 0.9 mg
Thrombus inhibitory rate ([2]; single iv 12.0 mg/kg): 60.82%
APTT fold of prolongation ([3]; single iv 3.0 mg/kg, Administration 5 min): 1.2 ± 0.2
APTT fold of prolongation ([3]; single iv 3.0 mg/kg, Administration 15 min): 1.0 ± 0.1
APTT ([3]; single iv 3.0 mg/kg, Administration for 5 min): 24.4 ± 4.2*^¥ s
APTT ([3]; single iv 3.0 mg/kg, Administration for 15 min): 20.0 ± 3.1 s
APTT ([3]; single iv 3.0 mg/kg, Before administration): 20.6 ± 1.2 s
APTT fold of prolongation [3, 8]: 2.1 ± 0.6
APTT fold of prolongation [3, 9]: 1.5 ± 0.4
APTT [3, 10]: 50.5 ± 3.6*^& s
APTT [3, 11]: 34.9 ± 2.7*^& s
APTT [3, 12]: 24.1 ± 1.0 s
APTT fold of prolongation ([3]; single iv 12.0 mg/kg, Administration 5 min): 2.3 ± 0.6
APTT fold of prolongation ([3]; single iv 12.0 mg/kg, Administration 15 min): 1.6 ± 0.5
APTT ([3]; single iv 12.0 mg/kg, Administration for 5 min): 54.4 ± 3.6*^& s
APTT ([3]; single iv 12.0 mg/kg, Administration for 15 min): 37.0 ± 2.7*^& s
APTT ([3]; single iv 12.0 mg/kg, Before administration): 23.3 ± 1.0 s
Lung coefficient ([4]; tail iv 2.5 mg/kg): 0.94 ± 0.16 g/100 g
Number of platelets ([4]; tail iv 2.5 mg/kg): 165.33 ± 20.2 ×10^9
Mortality rate ([4]; tail iv 2.5 mg/kg, 2.5 mg/kg): 60 ^ %
Mortality rate ([4]; tail iv 2.5 mg/kg, listed as polypeptide 2, 2.5 mg/kg): 60%
Lung coefficient ([4]; tail iv 5.0 mg/kg): 1.08 ± 0.27 g/100 g
Number of platelets ([4]; tail iv 5.0 mg/kg): 207.83 ± 33.09 ×10^9
Mortality rate ([4]; tail iv 5.0 mg/kg, 5 mg/kg): 30**^# %
Mortality rate ([4]; tail iv 5.0 mg/kg, listed as polypeptide 2, 5 mg/kg): 30%
Lung coefficient ([4]; tail iv 10.0 mg/kg): 0.83 ± 0.14 g/100 g
Number of platelets ([4]; tail iv 10.0 mg/kg): 529.57 ± 104.28 ×10^9
Mortality rate ([4]; tail iv 10.0 mg/kg, 10 mg/kg): 10**^# %
Mortality rate ([4]; tail iv 10.0 mg/kg, listed as polypeptide 2, 10 mg/kg): 10%

Enoxaparin
Common carotid arterial thrombosis Fold of prolongation ([1]; iv 30 + 45 u (U/kg+U/kg/h)): 1.93 ± 0.52
Common carotid arterial thrombosis OT ([1]; iv 30 + 45 u (U/kg+U/kg/h)): 48.17 ± 13.12 min
Common carotid arterial thrombosis Fold of prolongation ([1]; iv 30 + 120 u (U/kg+U/kg/h)): 1.66 ± 0.27
Common carotid arterial thrombosis OT ([1]; iv 30 + 120 u (U/kg+U/kg/h)): 41.4 ± 6.68 min
Common carotid arterial thrombosis Fold of prolongation ([1]; iv 60 + 60 u (U/kg+U/kg/h)): 2.23 ± 0.29
Common carotid arterial thrombosis OT ([1]; iv 60 + 60 u (U/kg+U/kg/h)): 55.75 ± 7.23 min
Common carotid arterial thrombosis Fold of prolongation ([1]; iv 60 + 240 u (U/kg+U/kg/h)): 1.99 ± 0.20
Common carotid arterial thrombosis OT ([1]; iv 60 + 240 u (U/kg+U/kg/h)): 49.75 ± 5.04 min
Common carotid arterial thrombosis Fold of prolongation ([1]; iv 90 + 120 u (U/kg+U/kg/h)): 1.95 ± 0.46
Common carotid arterial thrombosis OT ([1]; iv 90 + 120 u (U/kg+U/kg/h)): 48.83 ± 11.58 min
Thrombus dry weight ([2]; single iv 200 U (U/kg)): 1.5 ± 0.4 mg
Thrombus inhibitory rate ([2]; single iv 200 U (U/kg)): 48.26%
APTT fold of prolongation ([3]; single iv 200 (U/kg), Administration 5 min): 2.2 ± 0.5
APTT fold of prolongation ([3]; single iv 200 (U/kg), Administration 15 min): 1.8 ± 0.3
APTT ([3]; single iv 200 (U/kg), Administration for 5 min): 48.7 ± 3.9 s
APTT ([3]; single iv 200 (U/kg), Administration for 15 min): 40.9 ± 2.9 s
APTT ([3]; single iv 200 (U/kg), Before administration): 22.5 ± 1.1 s
Mortality rate ([4]; tail iv 0.5 mg/kg): 10%
Lung coefficient ([4]; tail iv 250 IU/kg): 1.02 ± 0.33 g/100 g
